In patent publication US10548984B2 (priority 2015, dated 2020):
Non-standard residues stand in square brackets, D forms with d. Residues, ends and D or L forms follow the SMILES beside them.

What was measured:
mice [1] = conditions: mouse, in vivo
mice [2] = assay: Immunogenicity study (serum antibody ELISA); type: in vivo, mouse; conditions: i.v. injection
Procedure: Mice were injected intravenously with 50 μg of siRNA complexed with either the Test-Peptide or Test-RI Peptide vectors, with the peptide vector alone or with PBS as negative control for three consecutive days, and then on every alternate day for 14 days. […] To detect the presence of antibodies to the Test-Peptide or Test-RI-peptide, serum was collected from the mice on day 21 and serial double dilution (1:100 followed by 10 dilutions) of the sera was incubated in 384 well microtitre plate coated with either Test-Peptide or Test-RI-peptide (50 ng/well). The bound antibody was detected with a goat anti-mouse Ig-HRP conjugate.

[3] = system: nAchRs present on M17 cells; assay: Competitive binding assay and immunocytochemistry of biotinylated peptide on M17 cells; design: species or system human; conditions: avidin-FITC
Procedure: To confirm that the binding specificity of the peptide to the neuronal cells was mediated by its binding to nAchRs, a competition assay was performed using alpha bangarotoxin (BTX) peptide, which is a competitive antagonist for nAchRs.
M17 cells were incubated with the biotinylated-peptide (SEQ ID NO:2) (2.5 μM) in the absence or presence of BTX peptide (0.01 μM or 0.1 μM) at 4° C. for 1 hr, stained with avidin-FITC and analyzed by FACS.
Immunocytochemistry was used to confirm the binding of the peptide (SEQ ID NO:2) to M17 cells. M17 cells were incubated with or without biotinylated-peptides (SEQ ID NO:2) or with the MAT peptide which served as a negative control. The cells were then stained with avidin-FITC and viewed by fluorescence microscopy.

Compound	production of inflammatory cytokines (mice [1])	antibody response (mice [2])	binding of peptide to M17 cells (FITC-positive immunostaining) ([3]; biotinylated peptide, fluorescence microscopy)	inhibition of biotinylated-peptide (SEQ ID NO:2) binding to M17 cells ([3]; peptide 2.5 μM, BTX 0.01 μM or 0.1 μM, 4° C., 1 hr, FACS)
CC[C@@H](C)[C@@H](NC(=O)[C@@H](Cc1ccccc1)NC(=O)[C@H](NC(=O)[C@@H](CC(N)=O)NC(=O)[C@@H](CO)NC(=O)[C@@H](CCCNC(=N)N)NC(=O)CNC(=O)[C@@H](CCCCN)NC(=O)CN(C)C(=O)CN(C)C(=O)CN(C)C(=O)CN(C)C(=O)[C@@H](CCCNC(=N)N)NC(=O)[C@@H](CCCNC(=N)N)NC(=O)[C@@H](CCCNC(=N)N)NC(=O)[C@@H](CCCNC(=N)N)NC(=O)[C@@H](CCCNC(=N)N)NC(=O)[C@@H](CCCNC(=N)N)NC(=O)[C@@H](CCCNC(=N)N)NC(=O)[C@@H](CCCNC(=N)N)NC(=O)[C@H](N)CCCNC(=N)N)[C@H](C)O)C(=O)N[C@H](CC(=O)O)C(=O)N[C@H](CS)C(=O)O [Test-RI-peptide, H-rrrrrrrrr-Sar-Sar-Sar-Sar-kGrsntfidc]	did not elicit an antibody response or result in the production inflammatory cytokines	did not elicit an antibody response		
CC[C@H](C)[C@H](NC(=O)[C@H](CC(=O)O)NC(=O)[C@@H](N)CS)C(=O)N[C@@H](Cc1ccccc1)C(=O)N[C@H](C(=O)N[C@@H](CC(N)=O)C(=O)N[C@@H](CO)C(=O)N[C@@H](CCCNC(=N)N)C(=O)NCC(=O)N[C@@H](CCCCN)C(=O)NCC(=O)NCC(=O)NCC(=O)NCC(=O)N[C@H](CCCNC(=N)N)C(=O)N[C@H](CCCNC(=N)N)C(=O)N[C@H](CCCNC(=N)N)C(=O)N[C@H](CCCNC(=N)N)C(=O)N[C@H](CCCNC(=N)N)C(=O)N[C@H](CCCNC(=N)N)C(=O)N[C@H](CCCNC(=N)N)C(=O)N[C@H](CCCNC(=N)N)C(=O)N[C@H](CCCNC(=N)N)C(=O)O)[C@@H](C)O [Test-peptide] (H-CDIFTNSRGKGGGG[dR][dR][dR][dR][dR][dR][dR][dR][dR]-OH; C-terminus assumed)	did not elicit an antibody response or result in the production inflammatory cytokines	did not elicit an antibody response		
CDIFTNSRGK [peptide (SEQ ID NO:2), RVG derived 10 residue peptide]			binds specifically to neuronal cells	
alpha bangarotoxin [BTX, reference compound]				inhibited peptide binding to M17 cells in a dose-dependent manner
